Measured values published in US20080138853A1, “Method for evaluating the degree of maturity of corneocytes” (priority 2000, published 2008).

Legend:
[1] = tested on: horny layer of upper arm inside (cornified envelope); assay: Involucrin-positive CE in experimental rough skin on the inside of the upper arm; type: in vivo, human; settings: SDS-induced experimental rough skin, 3 to 4 specimens, non-treated group 0.09 ± 0.04
Text: A cellophane adhesive tape was adhered on a face (cheek) and an upper arm of an examinee having skin troubles such as rough skin and immediately peeled off. […] The insoluble substances thus obtained was CE.
A result obtained by staining CE originating in the face of a person troubled with rough skin in the manner described above is shown in FIG. 1 (drawing substitute photograph), and shown in FIG. 2 (drawing substitute photograph) is a result obtained by staining CE originating in a horny layer obtained by experimental rough skin induced by sodium dodecylsulfate (SDS) processing or tape stripping on inside of upper arm without any skin troubles.
Further, the proportions of the involucrin-positive CE's in the SDS treated group and the tape stripping group in the experimental rough skin described above are shown in Table 1 in comparison with that of the involucrin-positive CE in the non-processed group (each 3 to 4 specimens).

[2] = tested on: human epidermal keratinocytes; assay: CE formation-promoting effect in cultured epidermal keratinocytes (involucrin immunostaining and Nile Red staining of CE); type: cell-based; settings: 100 μM fatty acid in MEM containing 0.1% bovine serum albumin, confluent keratinocytes, cultured one week; growth medium control 15.83 ± 3.49
Text: Further, culture was continued for one week. […] The insoluble substances thus obtained were CE.

SMILES: CCCCCCCCCCCCOS(=O)(=O)[O-].[Na+] [SDS, sodium dodecylsulfate]
- Proportion of involucrin-positive CE (%) average ± SD [1]: 6.21 ± 2.96%

SMILES: CCCCC/C=C\C/C=C\CCCCCCCC(=O)O [linoleic acid]
- Proportion of involucrin-positive CE (%) average ± SD [2]: 0 (not detected) %

SMILES: CCCCCCCC/C=C\CCCCCCCC(=O)O [oleic acid]
- Proportion of involucrin-positive CE (%) average ± SD [2]: 0 (not detected) %
